Data published in patent US20230210849A1, “CADHERIN-11 INHIBITOR FORMULATION AND ITS USES IN IMMUNOTHERAPY” (GEORGETOWN UNIVERSITY, priority 2020, published 2023).
“Also recorded” adds a separate entry of the source.

Tests used:
[1] = system: mT3 pancreatic cancer cells; experiment: s.c. mT3 pancreatic tumor growth in immunocompetent C57BL/6J transplant mice; format: in vivo, mouse; conditions: for growth rate of pre-existing tumors: started at average tumor volume 100 mm^3 (FIG. 5H)
Source text: The experimental protocols were approved by the Georgetown University Animal Care and Use Committee. A pair of CDH11^−/− mice (Horikawa et al. Dev. Biol. 215: 182-189 (1999)) was kindly provided by Dr. Michael Brenner from Harvard University. A breeding pair of p48-Cre;LSL-Kras^G12D/+;LSL-Trp53^R172H/+ (KPC) mice (Hingorani et al. Cancer Cell 7: 469-483 (2005)) was provided by Dr. Anton Wellstein from Georgetown University. C57BL/6J mice (Cat #000664; Research Resource Identifier (RRID): IMSR_JAX:000664) and Rag1-mutant mice on C57BL/6J background (Cat #002216; RRID: IMSR_JAX:002216) were purchased from The Jackson Laboratory (Bar Harbor, Me.). In transplant experiments, 12-week old C57BL/6J and Rag1-mutant (on C57BL/6J background) mice were bilaterally subcutaneously (s.c.) injected with 5×10^5 mT3 pancreatic cancer cells, derived from a Kras^+/LSL-G12D;Trp53^+/LSL-R172H;Pdx-Cre mouse on C57BL/6 background. Both genders of mice were equally represented throughout all in vivo experiments. Mice were housed in specific pathogen free environment under standard conditions. See, Bandrowski et al. “The Resource Identification Initiative: A cultural shift in publishing,” F1000Res 4: 134 (2015), regarding Research Resource Identifiers (RRIDs),
(§1) Anti-PD1 (InVivoPlus anti-mouse PD1 (CD279), clone RMP1-14, Cat #BP0146, Bio X Cell (Lebanon, N.H.)) was administered intraperitoneally (i.p.) at 250 μg/mouse, 2× week. Gemcitabine (G-4177, LC Laboratories (Woburn, Mass.)) was administered i.p. at 100 mg/kg, 2× week. Treatment with CDH11 monoclonal antibody (mAb), SYN0012 (Roche (Basel, Switzerland)) was administered i.p. at 10 mg/kg, 2× week. Treatment with a small molecule CDH11-inhibitor, SD133, was administered i.p. at 150 mg/kg, 40 mg/kg or 10 mg/kg, 4× week. Stock solution of SD133 at 375 mg/mL was made in DMSO (Sigma (St. Louis, Mo.)), and further diluted in 30% PEG400 (Sigma).

[2] = Body weight / toxicity of treated mT3 tumor-bearing mice; format: in vivo, mouse
Procedure: Body weight of C57BL/6J mice engrafted with syngeneic mT3 cells and treated with (A) vehicle (DMSO), (B) gemcitabine, (C) CDH11 mAb, (D) CDH11 mAb+ gemcitabine, (E) SD133 at 150 mg/kg for 2 weeks, (F) SD133 at 150 mg/kg for 2 weeks+ gemcitabine; (G) vehicle (10% DMSO in 30% PEG400), (H) SD133 at 150 mg/kg for 5 weeks, and mice with pre-existing mT3 tumors treated with (I) SD133 at 40 mg/kg, and (J) SD133 at 10 mg/kg. Mouse body weight was measured once or twice a week. Body weight of immunodeficient Rag1-mutant mice on C57BL/6J background with pre-existing syngeneic mT3 tumors treated with (K) vehicle (10% DMSO in 30% PEG400), and (L) SD133 at 40 mg/kg. Gender of mice is indicated in the graphs by commonly used gender symbols. The dose, route and treatment schedule are indicated in colored bars under the x-axes.
as §1

KPC mice (PDAC) = experiment: Survival of KPC transgenic PDAC mice under treatment; format: in vivo, mouse
Source text: (§2) The experimental protocols were approved by the Georgetown University Animal Care and Use Committee. A pair of CDH11^−/− mice (Horikawa et al. Dev. Biol. 215: 182-189 (1999)) was kindly provided by Dr. Michael Brenner from Harvard University. A breeding pair of p48-Cre;LSL-Kras^G12D/+;LSL-Trp53^R172H/+ (KPC) mice (Hingorani et al. Cancer Cell 7: 469-483 (2005)) was provided by Dr. Anton Wellstein from Georgetown University. C57BL/6J mice (Cat #000664; Research Resource Identifier (RRID): IMSR_JAX:000664) and Rag1-mutant mice on C57BL/6J background (Cat #002216; RRID: IMSR_JAX:002216) were purchased from The Jackson Laboratory (Bar Harbor, Me.). In transplant experiments, 12-week old C57BL/6J and Rag1-mutant (on C57BL/6J background) mice were bilaterally subcutaneously (s.c.) injected with 5×10^5 mT3 pancreatic cancer cells, derived from a Kras^+/LSL-G12D;Trp53^+/LSL-R172H;Pdx-Cre mouse on C57BL/6 background. Both genders of mice were equally represented throughout all in vivo experiments. Mice were housed in specific pathogen free environment under standard conditions. See, Bandrowski et al. “The Resource Identification Initiative: A cultural shift in publishing,” F1000Res 4: 134 (2015), regarding Research Resource Identifiers (RRIDs), […]

CDH11 = biological target: T1, CDH11 (Homo sapiens, UniProt P55287); conditions: in vitro; previously characterized and validated; cited from earlier work
T1 sequence (P55287 54-796): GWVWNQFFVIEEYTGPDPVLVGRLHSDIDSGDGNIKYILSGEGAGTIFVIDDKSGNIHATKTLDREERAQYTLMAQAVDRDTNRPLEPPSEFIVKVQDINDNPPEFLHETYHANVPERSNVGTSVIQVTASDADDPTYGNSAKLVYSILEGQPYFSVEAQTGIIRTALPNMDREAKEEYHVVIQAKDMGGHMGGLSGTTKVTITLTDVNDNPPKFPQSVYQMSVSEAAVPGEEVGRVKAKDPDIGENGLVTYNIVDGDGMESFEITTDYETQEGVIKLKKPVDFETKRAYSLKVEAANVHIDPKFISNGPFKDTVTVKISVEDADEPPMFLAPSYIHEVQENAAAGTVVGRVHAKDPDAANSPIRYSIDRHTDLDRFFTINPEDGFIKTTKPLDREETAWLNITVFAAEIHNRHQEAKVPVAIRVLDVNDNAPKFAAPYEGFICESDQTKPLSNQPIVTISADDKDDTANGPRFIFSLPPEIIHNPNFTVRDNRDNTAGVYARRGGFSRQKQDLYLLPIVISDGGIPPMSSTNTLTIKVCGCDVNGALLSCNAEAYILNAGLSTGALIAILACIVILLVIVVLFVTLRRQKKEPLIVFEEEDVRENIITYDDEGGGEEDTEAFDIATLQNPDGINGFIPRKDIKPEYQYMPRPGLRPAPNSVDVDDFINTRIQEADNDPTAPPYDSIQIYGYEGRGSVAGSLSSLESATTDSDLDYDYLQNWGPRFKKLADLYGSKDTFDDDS

[3] = system: mT3 pancreatic cancer cells; experiment: s.c. mT3 tumor growth in immunocompromised Rag1-mutant mice; format: in vivo, mouse; conditions: SD133 40 mg/kg, pre-existing tumors 100 mm^3, Rag1-mutant mice without mature T and B cells (FIG. 5I)
Source text: as §2

[4] = single agent, mT3-engrafted mice (FIG. 11)

Nc1ccn([C@@H]2O[C@H](CO)[C@@H](O)C2(F)F)c(=O)n1 [gemcitabine, reference compound]
tumor growth ([1]; monotherapy, gemcitabine i.p. 100 mg/kg 2x week or CDH11 mAb i.p. 10 mg/kg 2x week (FIG. 5A, 5B)): did not reduce tumor growth | mouse body weight [2, 4]: does not affect mouse body weight | first PDAC-related death (KPC mice (PDAC); KPC/CDH11-deficient mice, gemcitabine 6 weeks starting at 100 days of age): 165 days | overall survival versus untreated KPC/CDH11-deficient group (KPC mice (PDAC); gemcitabine 6 weeks starting at 100 days of age (FIG. 4B)): improved significantly

Oc1ccc(-c2cccnc2-c2ccccc2)cc1 [SD133]
growth rate of pre-existing tumors ([1]; SD133 10 mg/kg): significantly reduced | growth rate of pre-existing tumors ([1]; SD133 40 mg/kg): significantly reduced | tumor growth ([1]; SD133 150 mg/kg continued throughout the study, 5 weeks (FIG. 5G)): reduced tumor growth was observed for the duration of the treatment | combinatorial effect with gemcitabine on tumor growth ([1]; SD133 for 2 weeks + gemcitabine i.p. 100 mg/kg 2x week (FIG. 5F)): not observed | tumor growth ([1]; SD133 i.p. 150 mg/kg 4x week for 2 weeks, beginning on day 2 after cancer cell injection (FIG. 5E)): marked reduction in tumor growth | tumor size versus control after treatment discontinued ([1]; after the 2-week SD133 treatment was discontinued): remained significantly smaller than tumors in control animals | efficacy as a monotherapy (summary) ([1]; immunocompetent mT3 model, summary statement): remarkably effective | mouse body weight ([2]; in combination with gemcitabine, mT3-engrafted C57BL/6J mice (FIG. 11)): does not affect mouse body weight | toxicity ([2]; mouse, in vivo): no sign of toxicity | mouse body weight [2, 4]: no decrease in animal weight; also recorded: does not affect mouse body weight | affinity of binding to the CDH11 binding pocket (CDH11): low μM | tumor growth [3]: did not suppress tumor growth
